{"source": "patent US20210177889A1", "about": "“GASEOUS PHARMACEUTICAL COMPOSITION FOR HYPERTENSION THERAPY” (KEIO UNIVERSITY, priority 2019, published 2021)", "key": {"autonomic nerve function": {"test_system": "autonomic nerve function", "assay": "Autonomic nerve function by frequency analysis in spontaneous hypertension rats", "format": "in vivo, rat (SHR/Izumo)", "details": "SHR", "procedure": "(§1) Heart rate variability was analyzed using telemetry system software (Ponemah Ver. 6.3, Data Science International). Frequency domain analysis (sampling rate of 500 Hz; very low frequency (VLF) (0.05-0.25 Hz); low frequency (LF) (0.25-1.0 Hz); and high frequency (HF) (1.0-3.0 Hz)) was carried out using the arterial pressure waveform data of the first one minute of every five minutes (about 300 to 400 beats). In heart rate variability analysis, data recorded in the first 15 minutes was excluded, and effective data in the first one minute out of a block of every 5 minutes was used. LF and HF each reflected the sympathetic nerve component and the parasympathetic nerve component (Akselrod, S. et al. Power spectrum analysis of heart rate fluctuation: a quantitative probe of beat-to-beat cardiovascular control. Science 213, 220-222 (1981); Pagani, M. et al. Power spectral analysis of heart rate and arterial pressure variabilities as a marker of sympatho-vagal interaction in man and conscious dog. Circ. Res. 59, 178-193 (1986); and Montano, N. et al. Power spectrum analysis of heart rate variability to assess the changes in sympathovagal balance during graded orthostatic tilt. Circulation 90, 1826-1831 (1994)). LF/HF ratio and HF/(LF+HF) were each handled as indicators of sympathetic nerve activity and parasympathetic nerve activity (Heart rate variability: standards of measurement, physiological interpretation and clinical use. Task Force of the European Society of Cardiology and the North American Society of Pacing and Electrophysiology. Circulation 93, 1043-1065 (1996); and Pagani, M. et al. Relationship between spectral components of cardiovascular variabilities and direct measures of muscle sympathetic nerve activity in humans. Circulation 95, 1441-1448 (1997)).\n(§2) H2 gas (1.3% H2+21% O2+77.7 N2) and control gas (21% O2+79% N2) were filled into gas cylinders in advance at a factory. The H2 group and the control group were allowed to inhale the H2 gas and the control gas that were mixed in advance. […]"}, "[1]": {"test_system": "spontaneous hypertension rats (SHR)", "assay": "Hemodynamics effect of inhaled H2 in spontaneous hypertension rats (telemetry)", "format": "in vivo, rat (SHR/Izumo)", "procedure": "Male Lewis rats (8 weeks-old, body weight 250-300 g), and 10 weeks-old male spontaneous hypertension rats (SHR/Izumo rats; hereinafter simply referred to as SHR) were used (CLEA Japan). Rats were given water and standard food ad libitum, and were not fasted before experiment. Rats were kept under a condition of standardized temperature (22±1° C.) and humidity (55±5) in a 12 hours:12 hours of light-dark cycle. Rats were acclimated to the experimental condition from at least one week before the experiment. This research was approved by institutional animal control committees (Keio University [Tokyo], No. 13002-4; and Nippon Veterinary and Life Science University [Tokyo], No. 30K-61). Rats were randomly assigned to the H2 group or the control group.\nIn order to monitor continuous blood pressure fluctuation, telemetry transmitters were implanted into rats. Specifically, rats were anesthetized with isoflurane, and the left groin was disinfected with 1% chlorhexidine. An incision of about 1.5 cm was made in the left groin, the left femoral artery was exposed, and a telemetry transmitter (HD-S10, Physiotel HD Telemetry, Data Science International) catheter was inserted into the left femoral artery. The tip of the transmitter catheter was placed in the abdominal aorta caudally from the branch of the renal artery. The transmitter body was inserted into a subcutaneous pocket made in the left lower back, and the skin was sutured. All surgical intervention was performed under sterile conditions.\nH2 gas (1.3% H2+21% O2+77.7 N2) and control gas (21% O2+79% N2) were filled into gas cylinders in advance at a factory. The H2 group and the control group were allowed to inhale the H2 gas and the control gas that were mixed in advance. All animals were allowed to inhale the assigned gas at 10 L/minute for 1 hour in an established anesthesia box, and inhaled for an additional three minutes to purge the box (i.e. a total of 63 minutes). In the nephrectomy model and SHR, gas inhalation was repeated every day for 4 weeks and 2 weeks, respectively.\nSpontaneous hypertension rats (SHR) are a well-established hereditary hypertensive model that is broadly used in hypertensive research (Okamoto, K. & Aoki, K. Development of a strain of spontaneously hypertensive rats. Jpn. Circ. J. 27, 282-293 (1963); and Rubattu, S., Struk, B., Kreutz, R., Volpe, M. & Lindpaintner, K. Animal models of genetic hypertension: what can we learn for human hypertension? Clin. Exp. Pharmacol. Physiol. 22, S386-393 (1995)). In order to investigate the consistency of the hypotensive effect of H2 in other hypertensive models, the therapeutic effect of H2 gas against hypertension of SHR was investigated (FIG. 1d). […]"}, "[2]": {"test_system": "autonomic nervous system activity", "assay": "Spectral analysis of blood pressure variability (autonomic nervous system) in 5/6 nephrectomized rats", "format": "in vivo, Lewis rat", "procedure": "as §1, §2"}, "[3]": {"details": "Week 2 compared to Week 1 of daily inhalation, N=3"}, "[4]": {"details": "Week 3 (week after 2 weeks of inhalation)"}, "[5]": {"details": "baseline (day 0) to 4 weeks after starting H2 inhalation, vs control 5/6 nephrectomy group"}}, "data": [{"compound": "[2H][2H]", "note": "[H2 gas, Molecular hydrogen (H2)]", "values": [{"measurement": "paraSNA (HF/LF+HF) ratio", "setting": "autonomic nerve function; Week two compared to Week 1", "value": "increases"}, {"measurement": "influence on the autonomic nerve function after the end of inhalation", "setting": "autonomic nerve function; after the first week after the end of inhalation", "value": "disappeared"}, {"measurement": "SNA (LF/HF)", "setting": "autonomic nerve function; during inhalation of H2", "value": "decreases"}, {"measurement": "increase in blood pressure", "setting": "[1]; [3]", "value": "suppressed"}, {"measurement": "increase in heart rate", "setting": "[1]; [3]", "value": "suppressed"}, {"measurement": "blood pressure after inhalation was stopped", "setting": "[1]; [4]", "value": "stayed low"}, {"measurement": "heart rate after inhalation was stopped", "setting": "[1]; [4]", "value": "stayed low"}, {"measurement": "decrease in HF power (normalised units), change from baseline", "setting": "[2]; [5]", "value": "significantly suppressed"}, {"measurement": "increase in LF power (normalised units), change from baseline", "setting": "[2]; [5]", "value": "significantly suppressed"}, {"measurement": "increase in LF power and decrease in HF power, compared as continuous variables", "setting": "[2]; over a 4-week time course, tendency to be suppressed", "value": "not significant"}]}]}
